Assay results from patent US10383845B2 (priority 2017, dated 2019).
“Also recorded” adds a separate entry of the source. Read-outs that look alike come from different tables or passages of the source.

Columns and labels:
bacteria = settings: cited from earlier work
[1] = biological target: Vitamin K Oxide Reductase (Homo sapiens, UniProt Q9BQB6); settings: cited from earlier work
[2] = tested on: patients suffering from chronic periodontitis; experiment: Observation of patients suffering from chronic periodontitis under continued systemic medication with Warfarin; type: in vivo, human
Description: Such observations had not been reported in the medical literature or anywhere else.

human VKOR [3] = biological target: T1, human VKOR (Homo sapiens, UniProt Q9BQB6); settings: cited from earlier work
T1 construct: from tissue
T1 sequence (Q9BQB6 whole entry): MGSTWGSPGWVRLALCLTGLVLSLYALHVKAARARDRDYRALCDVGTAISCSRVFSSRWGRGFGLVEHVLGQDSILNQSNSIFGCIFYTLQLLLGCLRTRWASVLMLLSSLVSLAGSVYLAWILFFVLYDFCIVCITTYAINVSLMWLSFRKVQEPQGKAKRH

human VKOR [4] = biological target: T1, human VKOR; experiment: Inhibition of the human VKOR by unbound plasma Warfarin; type: in vivo; settings: converted from ng/ml
[5] = tested on: bacterial VKOR of several strains of mycobacteria; settings: cited from earlier work
[6] = Warfarin in plasma and saliva (oral fluid) of 14 patients undergoing Warfarin therapy (Lomonaco et al. 2014); type: in vivo, human; settings: inferred from the findings of Lomonaco

Chain of Vitamin K Oxide Reductase (Q9BQB6 whole entry): as above

Row | Structure (SMILES) | antibacterial properties (bacteria) | sensitivity of Vitamin K Oxide Reductase to inhibition [1] | buildup of dental plaque and tartar [2] | chronic periodontitis / periodontal disease [2] | frequency and severity of gingival inflammation occurrences [2] | unbound plasma concentration sufficient for effective inhibition of the human VKOR (human VKOR [3]) | unbound plasma concentration sufficient for effective inhibition of the human VKOR (human VKOR [4]) | concentration at which bacterial VKOR was inhibited [5] | concentration in oral fluid sufficient to be effective [6]
1 | O=c1oc2ccccc2c(O)c1Cc1c(O)c2ccccc2oc1=O [Dicumarol] | marked antibacterial properties | highly sensitive to inhibition | – | – | – | – | – | – | –
2 | CC(=O)CC(c1ccccc1)c1c(O)c2ccccc2oc1=O (stereo not shown) [Warfarin] | – | highly sensitive to inhibition | significant decrease; also recorded: reduced | marked improvement; also recorded: significant reduction | reduction; also recorded: reduced | 9 ± 4 ng/mL | ~30 nM | 1.6 to 4.5 mM | less than 1×10^−7 M
